Measured values: PMC3117834 (PLoS ONE, 2011)
Values belong to the molecule of their own block, whether it stands above or below them.

Columns and labels:
Assay type in all cases: biochemical
[1] = target: T1, Hog1 (Saccharomyces cerevisiae, UniProt P32485); test: […] kinase assay, Sic1 phosphorylation, autoradiography
T1 construct: pGEX-4T1 E. coli version also made
T1 sequence (P32485 2-435): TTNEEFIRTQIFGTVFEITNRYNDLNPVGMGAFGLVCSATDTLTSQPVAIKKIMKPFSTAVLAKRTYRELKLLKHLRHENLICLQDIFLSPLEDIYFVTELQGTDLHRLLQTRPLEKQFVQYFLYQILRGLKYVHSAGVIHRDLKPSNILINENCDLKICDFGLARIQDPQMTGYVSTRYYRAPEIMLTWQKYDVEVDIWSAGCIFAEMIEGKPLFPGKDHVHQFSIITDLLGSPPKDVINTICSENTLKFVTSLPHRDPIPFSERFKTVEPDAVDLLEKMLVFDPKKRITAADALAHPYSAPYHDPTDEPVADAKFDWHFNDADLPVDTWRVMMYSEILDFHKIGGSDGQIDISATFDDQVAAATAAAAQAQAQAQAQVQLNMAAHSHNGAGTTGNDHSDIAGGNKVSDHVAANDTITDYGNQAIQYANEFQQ

[2] = target: T2, Pbs2 (Saccharomyces cerevisiae, UniProt P08018, M435A); test: […] kinase assay, Hog1 phosphorylation, autoradiography
T2 construct: GST fusion (pGEX-4T1) from E. coli DH5alpha
T2 sequence (P08018 1-668 M435A): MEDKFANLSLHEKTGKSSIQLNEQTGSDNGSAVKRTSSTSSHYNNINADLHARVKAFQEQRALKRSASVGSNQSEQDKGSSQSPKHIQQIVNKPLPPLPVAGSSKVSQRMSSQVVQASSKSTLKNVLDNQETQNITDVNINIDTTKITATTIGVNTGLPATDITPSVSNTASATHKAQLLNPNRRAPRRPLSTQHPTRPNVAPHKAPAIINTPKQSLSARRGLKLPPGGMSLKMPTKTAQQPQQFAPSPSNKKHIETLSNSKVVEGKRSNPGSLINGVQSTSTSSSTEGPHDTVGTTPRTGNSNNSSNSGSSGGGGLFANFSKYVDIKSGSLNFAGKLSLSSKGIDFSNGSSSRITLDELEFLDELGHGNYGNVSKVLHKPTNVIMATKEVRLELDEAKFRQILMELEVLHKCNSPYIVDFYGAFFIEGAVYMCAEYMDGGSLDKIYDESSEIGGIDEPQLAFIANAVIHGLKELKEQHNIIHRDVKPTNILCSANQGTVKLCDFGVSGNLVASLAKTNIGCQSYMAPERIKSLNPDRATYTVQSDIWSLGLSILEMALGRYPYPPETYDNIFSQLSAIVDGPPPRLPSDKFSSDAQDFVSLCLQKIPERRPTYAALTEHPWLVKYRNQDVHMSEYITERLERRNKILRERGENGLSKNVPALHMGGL

[3] = target: T3, Hog1 (Saccharomyces cerevisiae, UniProt P32485, T100G); test: […] kinase assay, Sic1 phosphorylation, autoradiography
T3 construct: pGEX-4T1 E. coli version also made
T3 sequence (P32485 2-435 T100G): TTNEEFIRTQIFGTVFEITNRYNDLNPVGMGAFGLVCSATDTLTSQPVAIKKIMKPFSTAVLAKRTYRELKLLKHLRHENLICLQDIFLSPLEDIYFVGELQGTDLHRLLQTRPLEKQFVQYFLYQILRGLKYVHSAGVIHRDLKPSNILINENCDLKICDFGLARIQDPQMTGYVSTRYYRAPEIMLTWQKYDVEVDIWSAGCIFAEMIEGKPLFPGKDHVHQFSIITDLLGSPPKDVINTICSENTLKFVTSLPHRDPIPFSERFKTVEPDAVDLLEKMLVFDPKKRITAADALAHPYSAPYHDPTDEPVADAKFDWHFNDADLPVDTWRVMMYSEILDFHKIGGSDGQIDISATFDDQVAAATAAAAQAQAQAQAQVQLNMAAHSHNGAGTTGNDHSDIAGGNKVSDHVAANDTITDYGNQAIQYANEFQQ

[4] = target: T2, Pbs2; test: […] kinase assay, Hog1 phosphorylation, autoradiography; conditions: [gamma-32P]-phenethyl-ATP as phosphodonor; GST-Hog1 substrate; pH 8.0; 30 °C
[5] = target: T3, Hog1; test: […] kinase assay, Sic1 phosphorylation, autoradiography; remark: listed apart in the source
[6] = target: T3, Hog1; test: as above; conditions: in vitro-activated Hog1as

SMILES: CC(C)n1nc(C#Cc2ccc(F)cc2)c2c(N)ncnc21 [6b, 3-((4-fluorophenyl)ethynyl)-1-isopropyl-1H-pyrazolo[3,4-d]pyrimidin-4-amine]
% inhibition at 5 μM [4]: Pbs2as was inhibited by all the compounds in vitro | inhibition at 5 µM [5]: > 89%

SMILES: CC(C)n1nc(C#Cc2ccc(Cl)cc2)c2c(N)ncnc21 [6c, 3-((4-chlorophenyl)ethynyl)-1-isopropyl-1H-pyrazolo[3,4-d]pyrimidin-4-amine]
inhibition at 5 µM [5]: > 89%

SMILES: Nc1ncnc2c1c(C#Cc1ccccc1)nn2CCO [7a, 2-(4-amino-3-(phenylethynyl)-1H-pyrazolo[3,4-d]pyrimidin-1-yl)etanol]
32P kinase assay, Sic1 phosphorylation, autoradiography [6]: in vitro these compounds were able to inhibit Hog1as as efficiently as 6a

SMILES: Nc1ncnc2c1c(C#Cc1ccccc1)nn2CC(O)CO (stereo not shown) [7b, 3-(4-amino-3-(phenylethynyl)-1H-pyrazolo[3,4-d]pyrimidin-1-yl)propane-1,2-diol]
32P kinase assay, Sic1 phosphorylation, autoradiography [6]: in vitro these compounds were able to inhibit Hog1as as efficiently as 6a

The remaining lines, values ahead:

inhibition at 5 µM [1]: 94%
SMILES: CC(C)n1nc(-c2ccc(F)cc2)c2c(N)ncnc21 [5b, 3-(4-Fluorophenyl)-1-isopropyl-1H-pyrazolo[3,4-d]pyrimidin-4-amine]

IC50 [2]: 4.02 ± 0.26 nM | IC50 [3]: 37 ± 2.72 nM
SMILES: CC(C)n1nc(C#Cc2ccccc2)c2c(N)ncnc21 [6a, 1-Isopropyl-3-(phenylethynyl)-1H-pyrazolo[3,4-d]pyrimidin-4-amine]

IC50 [2]: 7.54 ± 0.25 nM | IC50 [3]: 9.47 ± 0.38 nM
SMILES: CC(C)(C)n1nc(Cc2cccc3ccccc23)c2c(N)ncnc21 [compound 9, 1-NM-PP1]
